We go through 15 molecules from US20230174510A1, “N-acetylserotonin Derivatives as TrkB Activators and Uses Thereof” (Emory University, priority 2020, published 2023).

“Also recorded” adds a separate entry of the source.

The subject of series [1] is AKT. Put plainly: AKT phosphorylation, western blot, NIH 3T3 cells expressing human TrkB. Also noted: key: “+”=increased phosphorylation; “−”=decreased phosphorylation; “nc”=no change. The class given is cell-based. To be noted: NIH 3T3 - TrkB cells. As to the method: (§1) Different concentrations of 2-fluoro-N-(2-(5-hydroxy-1H-indol-3-yl)ethyl)nicotinamide (analogue 147) were tested in NIH-3T3-TrkB cells. Cells at 70-80% confluency were serum deprived overnight and then stimulated with different concentrations of analogue 147 for 30 minutes. Protein extract was collected and subjected for western blot analysis. […] “+”=increased phosphorylation; “−”=decreased phosphorylation; “nc”=no change.
(§2) To screen the analogs for biological activity, the phosphorylation state of TrkB and AKT, a downstream signaling mediator of TrkB activation, was examined in cultured NIH/3T3 cells expressing human TrkB and in primary cultures of rat cortical neurons (see FIG. 5).
Background: In western blotting, separated proteins are transferred to a membrane and probed.

The target in series [2] is T1, TrkB (Homo sapiens, UniProt Q16620). The experiment in a line: TrkB phosphorylation, western blot, NIH 3T3 cells expressing human TrkB. Conditions: for pTrkB/β-actin: NIH 3T3 - TrkB cells, western blot; for concentration of best TrkB activation / TrkB activation, concentration dependence: NIH-3T3-TrkB cells, stimulated 30 minutes; for concentration of best TrkB activation: serum deprived overnight. Also noted: expressed in transfected cells; host or cells: NIH/3T3 (NIH-3T3-TrkB) cells; key to pTrkB/β-actin: “+”=increased phosphorylation; “−”=decreased phosphorylation; “nc”=no change. The class given is cell-based. How it is done: as §1, §2
Target sequence in this assay (Q16620 32-822): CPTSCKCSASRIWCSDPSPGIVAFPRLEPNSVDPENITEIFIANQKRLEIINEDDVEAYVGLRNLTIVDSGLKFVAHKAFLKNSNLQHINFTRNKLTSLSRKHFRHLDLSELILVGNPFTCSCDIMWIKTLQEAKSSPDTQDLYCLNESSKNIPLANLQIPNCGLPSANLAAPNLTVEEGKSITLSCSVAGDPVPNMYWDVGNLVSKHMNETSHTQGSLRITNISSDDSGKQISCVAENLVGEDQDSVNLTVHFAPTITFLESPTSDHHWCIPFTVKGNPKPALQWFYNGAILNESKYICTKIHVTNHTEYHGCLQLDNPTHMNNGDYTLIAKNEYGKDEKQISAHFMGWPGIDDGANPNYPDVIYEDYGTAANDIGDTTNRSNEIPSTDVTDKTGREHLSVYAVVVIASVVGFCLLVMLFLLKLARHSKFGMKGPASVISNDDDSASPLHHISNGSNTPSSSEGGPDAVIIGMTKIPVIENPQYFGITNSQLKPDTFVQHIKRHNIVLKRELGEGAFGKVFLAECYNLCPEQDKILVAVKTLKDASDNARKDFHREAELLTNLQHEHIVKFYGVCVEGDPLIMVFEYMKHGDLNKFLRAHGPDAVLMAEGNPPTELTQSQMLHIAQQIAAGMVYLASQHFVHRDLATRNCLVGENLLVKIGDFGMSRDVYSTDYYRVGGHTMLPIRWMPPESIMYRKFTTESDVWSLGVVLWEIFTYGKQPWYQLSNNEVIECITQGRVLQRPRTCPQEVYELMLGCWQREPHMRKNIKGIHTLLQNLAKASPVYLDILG

For series [3], the target named is T2, TrkB (Rattus norvegicus, UniProt Q63604).
T2 construct: in primary cultures of rat cortical neurons; endogenous in cells; host or cells: primary rat cortical neurons
Put plainly: TrkB phosphorylation, western blot, primary rat cortical neuronal culture. The class given is cell-based. Also noted: key: “+”=increased phosphorylation; “−”=decreased phosphorylation; “nc”=no change. As to the method:
as §1, §2

Series [4] concerns AKT. Put plainly: AKT phosphorylation, western blot, primary rat cortical neuronal culture. The format is cell-based. Also on record: key: “+”=increased phosphorylation; “−”=decreased phosphorylation; “nc”=no change. As to the method: as §1, §2
For series [5], the system named is blast-induced loss of visual function. The experiment in a line: Mouse blast injury (TBI) model, loss of visual function. The format is in vivo. As to the method:
Mice were exposed to a single 70 psi blast directed at the right side of the head. HIOC or vehicle was administered 15 minutes after exposure to blast, and daily for the next six days. A sham control group was included for comparison. Visual function was tested 1 week after blast.
(§3) This disclosure contemplates pharmaceutical treatments for trauma-induced vision loss that can be administered on the battlefield or in field hospitals during the critical period before irreversible neuronal degeneration and vision loss occur. A mouse blast injury model has been used to characterize the effects of blast injury to the eye and visual system. Blast injury results in (1) inflammatory responses (microglial activation and reactive gliosis) and activation of the innate and acquired immune system; (2) loss of visual function (contrast sensitivity and visual acuity); (3) thinning of the nerve fiber layer of the retina, and (4) axon loss in the optic nerve. An N-acetylserotonin derivative, N-[2-(5-hydroxy-1H-indol-3-yl)ethyl]-2-oxopiperidine-3-carboxamide (HIOC), effectively mitigates vision loss when administered within several hours after blast exposure (FIG. 1). Daily administration for one week reduces or prevents blast-induced loss of visual function for at least 4 months, mitigating the progressive vision loss that occurs over time in the absence of treatment. This therapeutic effect of HIOC is mediated by activation of TrkB, the cognate receptor for Brain-Derived Neurotrophic Factor (BDNF). Both N-acetylserotonin and HIOC activate TrkB and have neuroprotective properties. The pharmacokinetic characteristics of HIOC are desirable for an in vivo treatment because TrkB is activated for up to 16 hours following a single injection.
The ability of HIOC to mitigate the loss of visual function resulting from blast directed at the head was examined (FIG. 1). Mice were exposed to a single blast of ˜70 psi directed on the right side of the head. Contrast sensitivity was measured 1 week after blast.

Series [6] deals with kainic acid-induced neuronal cell death. Conditions: TrkB-dependent; cited from earlier work.
Series [7] has as its system brain damage from subarachnoid hemorrhage. Conditions: cited from earlier work.
Series [8] addresses T3, TrkB (Mus musculus, UniProt P15209).
T3 construct: from tissue; host or cells: retina (ganglion cells) and brain
Put plainly: TrkB activation in retina and brain after systemic administration. The class given is in vivo.
Description: as §3, with “The pharmacokinetic characteristics of HIOC are desirable for an in vivo treatment because TrkB is activated for up to 16 hours following a single injection.” left out

The target in series [9] is T1, TrkB. Conditions: cited from earlier work.
Target sequence in this assay (Q16620 32-822, species assumed): as the sequence (Q16620 32-822) above
Series [10] deals with photoreceptor damage. Conditions: cited from earlier work.

T2 sequence (Q63604 32-821): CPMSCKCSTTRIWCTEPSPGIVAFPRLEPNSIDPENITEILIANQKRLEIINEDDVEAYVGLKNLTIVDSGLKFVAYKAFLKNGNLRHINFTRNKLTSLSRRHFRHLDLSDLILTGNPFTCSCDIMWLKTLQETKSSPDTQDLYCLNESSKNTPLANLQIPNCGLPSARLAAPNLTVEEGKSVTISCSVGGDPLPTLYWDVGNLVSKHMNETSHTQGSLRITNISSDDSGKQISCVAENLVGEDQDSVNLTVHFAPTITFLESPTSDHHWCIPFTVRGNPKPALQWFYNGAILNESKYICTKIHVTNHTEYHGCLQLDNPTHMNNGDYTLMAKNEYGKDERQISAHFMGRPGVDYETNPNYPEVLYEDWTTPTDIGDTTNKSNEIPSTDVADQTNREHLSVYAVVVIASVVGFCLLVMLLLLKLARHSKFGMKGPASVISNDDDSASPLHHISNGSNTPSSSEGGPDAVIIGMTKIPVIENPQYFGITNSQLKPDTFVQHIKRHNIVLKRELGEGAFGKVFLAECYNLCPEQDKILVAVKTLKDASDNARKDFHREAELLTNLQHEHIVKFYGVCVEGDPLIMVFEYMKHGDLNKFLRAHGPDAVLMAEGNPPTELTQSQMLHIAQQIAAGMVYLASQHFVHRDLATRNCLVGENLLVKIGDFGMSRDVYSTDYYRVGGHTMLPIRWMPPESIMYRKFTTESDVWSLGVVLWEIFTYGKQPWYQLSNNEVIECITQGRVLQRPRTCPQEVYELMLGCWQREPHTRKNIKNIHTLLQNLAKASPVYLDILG
T3 sequence (P15209 32-821): as the sequence (Q63604 32-821) above, with M3T, T9S, T10A, I32V, K63R, G84S, T153M, I185L, T394S, N770S counted along it

Turning to `O=C(NCCc1c[nH]c2ccc(O)cc12)c1ccccc1` [Analogue 83, N-(2-(5-hydroxy-1H-indol-32-yl)ethyl)benzamide], the pAkt/β-actin entry in series [1] and in series [4] was “+” throughout. Moreover, the pTrkB/β-actin entry in series [2] and in series [3] was “+” each time.

`O=C(NCCc1c[nH]c2ccc(O)cc12)c1cccnc1` [Analogue 85, N-(2-(5-hydroxy-1H-indol-3-yl)ethyl)nicotinamide]: the results for the pAkt/β-actin result in series [1] and in series [4] were “nc” and “+”, respectively. For the same molecule, the pTrkB/β-actin result in series [2] is listed as “nc”; in series [3], “+”.

For the molecule `O=C(NCCc1c[nH]c2ccc(O)cc12)c1ccccn1` [Analogue 105, N-(2-(5-hydroxy-1H-indol-3yl)ethyl)picolinamide], the pAkt/β-actin result in series [1] and in [4] was “+” throughout. Moreover, the pTrkB/β-actin result in series [2] is recorded as “−”; in [3], “+”.

Regarding `O=C(NCCc1c[nH]c2ccc(O)cc12)c1ccncc1` [Analogue 107, N-(2-(5-hydroxy-1H-indol-3-yl)ethyl)isonicotinamide], the pAkt/β-actin entry in series [1] and in series [4] was “+” in each case. Moreover, the pTrkB/β-actin entry in series [2] and in series [3] was “+” in each case.

Turning to `O=C(NCCc1c[nH]c2ccc(O)cc12)c1ccc(F)cn1` [Analogue 112, 5-fluoro-N-(2-(5-hydroxy-1H-indol-3yl)ethyl)picolinamide], the pTrkB/β-actin result in series [3] was “+”. Besides, the pAkt/β-actin entry in series [4] is “−”.

Consider `O=C(NCCc1c[nH]c2ccc(O)cc12)c1ccncc1F` [Analogue 114, 3-fluoro-N-(2-(5-hydroxy-1H-indol-3-yl)ethyl)isonicotinamide], for which the pTrkB/β-actin entry in series [3] is “nc”. Moreover, in [4], the pAkt/β-actin entry is reported as “nc”.

Turning to `O=C(NCCc1c[nH]c2ccc(O)cc12)c1cncc(F)c1` [Analogue 127, 5-Fluoro-N-(2-(5-hydroxy-1H-indol-3-yl)ethyl)nicotinamide], in series [1], the pAkt/β-actin entry is recorded as “−”. Besides, in series [2], the pTrkB/β-actin result is on record as “+”; the “concentration of best TrkB activation” value is 100 nM; the “TrkB activation, concentration dependence” value is listed as “higher activity at low nanomolar concentrations than at 1 μM”. The pTrkB/β-actin result in series [3] is “+”. Besides, the pAkt/β-actin entry in [4] is given as “+”.

Regarding `O=C1NCCCC1C(=O)NCCc1c[nH]c2ccccc12` (stereo not shown) [Analogue 145, N-(2-(1H-indol-3-yl)ethyl)-2-oxopiperidine-3-carboxamide], the pAkt/β-actin result in series [1] and in series [4] was “+” each time. In addition, the pTrkB/β-actin entry in series [2] and in [3] was “+” throughout.

For `O=C(NCCc1c[nH]c2ccc(O)cc12)c1cccnc1F` [Analogue 147, 2-fluoro-N-(2-(5-hydroxy-1H-indol-3yl)ethyl)nicotinamide], the pAkt/β-actin entry in series [1] is listed as “+”. In series [2], the pTrkB/β-actin entry is “+”; the “concentration of best TrkB activation” value was determined as 10 nM; the “TrkB activation, concentration dependence” value is recorded as “higher activity at low nanomolar concentrations than at 1 μM”. In addition, the pTrkB/β-actin entry in [3] is on record as “+”. In addition, in [4], the pAkt/β-actin entry is “+”.

As for `COc1ccc2[nH]cc(CCNC(=O)C3CCCNC3=O)c2c1` (stereo not shown) [Analogue 149, N-(2-(5-methoxy-1H-indol-3-yl)ethyl)-2-oxopiperidine-3-carboxamide], the pAkt/β-actin result in series [1] and in series [4] was “+” in each case. The pTrkB/β-actin result is listed as “−” in series [2] and “+” in [3].

With `CN1CCCC(C(=O)NCCc2c[nH]c3ccc(O)cc23)C1=O` (stereo not shown) [Analogue 151, N-(2-(5-hydroxy-1H-indol-3-yl)ethyl)-1-methyl-2-oxopiperidine-3-carboxamide], the pTrkB/β-actin result in series [3] is “+”. Moreover, the pAkt/β-actin result in series [4] is given as “−”.

As for `CC1(C(=O)NCCc2c[nH]c3ccc(O)cc23)CCCNC1=O` (stereo not shown) [Analogue 170, N-(2-(5-hydroxy-1H-indol-3-yl)ethyl)-3-methyl-2-oxopiperidine-3-carboxamide], the pAkt/β-actin entry in series [1] is on record as “+”; in [4] it was “nc”. Besides, the pTrkB/β-actin entry in series [2] and in [3] was “+” in each case.

On to `O=C1NCCCC1C(=O)NCCc1c[nH]c2ccc(O)cc12` (stereo not shown) [HIOC, N-[2-(5-hydroxy-1H-indol-3-yl)ethyl]-2-oxopiperidine-3-carboxamide], for which the “effects on blast-induced retinal and optic nerve damage” value in [5] (blast exposure) was “reduces vision loss, microglial activation in the retina, nerve fiber layer thinning, and the optic nerve axon loss”. Moreover, the “duration of protection from blast-induced loss of visual function” value in series [5] (daily administration for one week) is on record as “at least 4 months”. The “TBI induced decrease in contrast sensitivity” value in series [5] (mice, single ~70 psi blast, 80 mg/kg, measured 1 week after blast) is “completely prevented”. Further, the pAkt/β-actin result in [1] and in [4] was “+” each time. In addition, the pTrkB/β-actin entry in series [2] and in [3] was “+” throughout. For the same molecule, the “kainic acid-induced neuronal cell death / apoptosis” value in series [6] was “inhibits neuronal apoptosis; also recorded: reduces kainic acid-induced neuronal cell death”. The “brain damage from subarachnoid hemorrhage” value in series [7] is given as “attenuates brain damage”. Further, the “duration of TrkB activation” value in [8] (following a single injection) was “up to 16 hours”. The “blood-retinal and blood-brain barrier penetration” value in series [8] (systemic administration) is “crosses the blood-retinal and blood-brain barriers”. Further, the TrkB activation result in series [9] is reported as “activate TrkB; also recorded: selectively activates TrkB”. Also, the “photoreceptor damage from toxic light exposure” value in [10] was “reduces photoreceptor damage”.

`CC(=O)NCCc1c[nH]c2ccc(O)cc12` [N-acetylserotonin]: in series [9], the TrkB activation entry was “activate TrkB”.

B1: BDNF: Brain-Derived Neurotrophic Factor; TrkB is its cognate receptor (protein, UniProt P23560 19-247, looked up)
Neurotrophic factor BDNF …: APMKEANIRGQGGLAYPGVRTHGTLESVNGPKAGSRGLTSLADTFEHVIEELLDEDQKVRPNEENNKDADLYTSRVMLSSQVPLEPPLLFLLEEYKNYLDAANMSMRVRRHSDPARRGELSVCDSISEWVTAADKKTAVDMSGGTVTVLEKVPVSKGQLKQYFYETKCNPMGYTKEGCRGIDKRHWNSQCRTTQSYVRALTMDSKKRIGWRFIRIDTSCVCTLTIKRGR
Turning to B1, the pAkt/β-actin result in series [1] and in [4] was “+” in each case. Besides, the pTrkB/β-actin result in series [2] and in series [3] was “+” throughout.
